pIC50: −log10 of the molar value.
These molecules were tested against T1, human SLC6A19 (Homo sapiens, UniProt Q695T7) (assay: Example B2: 13C6,15N-isoleucine uptake, RapidFire mass spectrometry, in CHO cells with doxycycline-inducible expression of human SLC6A19 and TMEM27). Settings: read-out: SLC6A19_RapidFire Uptake Assay IC50.
T1 construct: expressed in transfected cells
T1 sequence (Q695T7 1-634): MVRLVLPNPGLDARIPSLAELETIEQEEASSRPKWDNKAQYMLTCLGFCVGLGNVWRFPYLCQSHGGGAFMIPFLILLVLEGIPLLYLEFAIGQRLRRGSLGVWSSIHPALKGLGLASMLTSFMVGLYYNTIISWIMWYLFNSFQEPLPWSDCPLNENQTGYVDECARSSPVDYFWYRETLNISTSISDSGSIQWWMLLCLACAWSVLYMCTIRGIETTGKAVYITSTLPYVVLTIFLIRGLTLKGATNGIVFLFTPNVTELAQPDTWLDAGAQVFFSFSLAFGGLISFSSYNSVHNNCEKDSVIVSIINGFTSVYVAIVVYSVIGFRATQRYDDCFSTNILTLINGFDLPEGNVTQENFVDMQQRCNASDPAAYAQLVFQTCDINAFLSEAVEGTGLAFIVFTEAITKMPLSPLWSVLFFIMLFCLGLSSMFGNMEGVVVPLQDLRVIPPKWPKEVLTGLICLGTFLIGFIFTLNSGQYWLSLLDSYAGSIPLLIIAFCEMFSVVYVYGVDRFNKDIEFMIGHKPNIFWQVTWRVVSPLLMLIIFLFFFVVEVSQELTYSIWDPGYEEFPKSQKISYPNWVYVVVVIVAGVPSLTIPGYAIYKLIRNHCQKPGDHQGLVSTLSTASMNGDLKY
T1 sequence (Q9HBJ8 15-222 partner): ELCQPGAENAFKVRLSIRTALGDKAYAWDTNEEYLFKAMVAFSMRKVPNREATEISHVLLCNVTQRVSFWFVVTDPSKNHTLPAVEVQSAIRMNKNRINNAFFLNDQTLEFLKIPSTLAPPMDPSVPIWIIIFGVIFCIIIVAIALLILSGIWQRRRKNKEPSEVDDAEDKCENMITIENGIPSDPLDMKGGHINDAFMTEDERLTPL
Format: cell-based
Procedure: Assay ready vials of CHO cells with doxycycline inducible expression of human SLC6A19 and TMEM27 were thawed, plated in T175 flasks containing DMEM/F12 media, 10% FBS, 100 Penicillin-Streptomycin, 1× UltraGlutamate, 1 mM Sodium Pyruvate, Sodium Bicarbonate (7.5 mL of 7.5% solution in 500 mL media final), […] Blasticidin, 150 µg/mL Hygromycin B Gold, and 500 µg/mL G418, and incubated (humidified, 37° C. with […]) for 48 hours. Media was then removed, flasks were washed with 20 mL of DPBS, and 5 mL of TryμLE™ Express was added to each flask to initiate cell dissociation. After 5 minutes, 10 mL of cell culture media was added to each flask and mixed. The cell suspension was collected and centrifuged for 5 minutes at 200×g. The supernatant was removed, and the pellet was resuspended in 10 mL of cell culture media. Resuspended cells were counted using a Vi-Cell. 30 μL/well (20,000 cells/well) of cell suspension was added to Poly-D-Lysine 384-well black/clear plates. Plates were incubated (humidified, 37° C. with 5% CO2) for 24 hours. To induce expression of human SLC6A19 and TMEM27, 10 μL of assay culture media containing 4 μg/mL doxycycline was added to each well. Assay plates were then incubated (humidified, 37° C. with 5% CO2) overnight. After incubation, the media was removed, and wells were washed 3 times with 40 μL of warmed DPBS. […] All compounds were plated in a duplicate 10-point dilution series that consisted of 2-fold dilutions. The plates were incubated (humidified, 37° C. with 5% CO2) with compound for 20 minutes. Afterwards, 20 μL/well of 2 mM 13C6,15N-1-isoleucine was added to each well and plates were incubated again (humidified, 37° C. with 5% CO2) for another 20 minutes. Assay buffer was then removed, and plates were washed. 70 μL/well of stop solution (75% acetonitrile, 25% HPLC grade water, 250 nM 1-leucine-1-13 C (RapidFire standard)) was added to each well. The plates were sealed and then placed in a −20° C. freezer for 20 minutes. The plates were thawed at room temperature for 20 minutes and then centrifuge for 20 minutes at 3000 rpm. Using an ABSciex API4000 mass spectrometer, processed samples were loaded onto the graphitic carbon SPE-column. The time for aspiration, load/wash, elution and re-equilibration time was 600, 1500, 3000 and 500 milliseconds, respectively. Peak areas were calculated using RapidFire Integrator software.

| SMILES | pIC50 |
| --- | --- |
| CN(C(=O)NCc1cc2cc(Cl)ccc2[nH]1)[C@@H]1CCCN(C(=O)c2ncnn2C)C1 [Compound 28, (R)-3-((5-chloro-1H-indol-2-yl)methyl)-1-methyl-1-(1-(1-methyl-1H-1,2,4-triazole-5-carbonyl)piperidin-3-yl)urea] | < 4.63 |
| CN(C(=O)NCc1cc2cc(Cl)ccc2[nH]1)[C@@H]1CCCN(C(=O)CNC(N)=O)C1 [Compound 29, (R)-1-(1-(carbamoylglycyl)piperidin-3-yl)-3-((5-chloro-1H-indol-2-yl)methyl)-1-methylurea] | 5.60 |
| CN(C(=O)NCc1cc2cc(Cl)ccc2[nH]1)[C@@H]1CCCN(C(=O)Cn2nccn2)C1 [Compound 30, (R)-1-(1-(2-(2H-1,2,3-triazol-2-yl)acetyl)piperidin-3-yl)-3-((5-chloro-1H-indol-2-yl)methyl)-1-methylurea] | 5.43 |
| Cc1cc(C(=O)N2CCC[C@@H](N(C)C(=O)NCc3cc4cc(Cl)ccc4[nH]3)C2)on1 [Compound 31, (R)-3-((5-chloro-1H-indol-2-yl)methyl)-1-methyl-1-(1-(3-methylisoxazole-5-carbonyl)piperidin-3-yl)urea] | 5.83 |
| CN(C(=O)NCc1cc2cc(Cl)ccc2[nH]1)[C@@H]1CCCN(C(=O)CS(C)(=O)=O)C1 [Compound 32, (R)-3-((5-chloro-1H-indol-2-yl)methyl)-1-methyl-1-(1-(2-(methylsulfonyl)acetyl)piperidin-3-yl)urea] | 5.06 |
| CN(C(=O)NCc1cc2cc(Cl)ccc2[nH]1)[C@@H]1CCCN(C(=O)c2ccncc2)C1 [Compound 34, (R)-3-((5-chloro-1H-indol-2-yl)methyl)-1-(1-isonicotinoylpiperidin-3-yl)-1-methylurea] | 5.85 |
| Cc1cnoc1C(=O)N1CCC[C@@H](N(C)C(=O)NCc2cc3cc(Cl)ccc3[nH]2)C1 [Compound 36, (R)-3-((5-chloro-1H-indol-2-yl)methyl)-1-methyl-1-(1-(4-methylisoxazole-5-carbonyl)piperidin-3-yl)urea] | 5.80 |
| CN(C(=O)NCc1cc2cc(Cl)ccc2[nH]1)[C@@H]1CCCN(C(=O)c2ncc[nH]c2=O)C1 [Compound 37, (R)-3-((5-chloro-1H-indol-2-yl)methyl)-1-methyl-1-(1-(3-oxo-3,4-dihydropyrazine-2-carbonyl)piperidin-3-yl)urea] | 4.71 |
| CCC(O)C(=O)N1CCC[C@@H](N(C)C(=O)NCc2cc3cc(Cl)ccc3[nH]2)C1 (stereo partly drawn) [Compound 40, 3-((5-chloro-1H-indol-2-yl)methyl)-1-((3R)-1-(2-hydroxybutanoyl)piperidin-3-yl)-1-methylurea] | 5.28 |
| CN(C(=O)NCc1cc2cc(Cl)ccc2[nH]1)[C@@H]1CCCN(C(=O)c2cccc(F)c2F)C1 [Compound 42, (R)-3-((5-chloro-1H-indol-2-yl)methyl)-1-(1-(2,3-difluorobenzoyl)piperidin-3-yl)-1-methylurea] | 5.91 |
| COC(C)C(=O)N1CCC[C@@H](N(C)C(=O)NCc2cc3cc(Cl)ccc3[nH]2)C1 (stereo partly drawn) [Compound 43, 3-((5-chloro-1H-indol-2-yl)methyl)-1-((3R)-1-(2-methoxypropanoyl)piperidin-3-yl)-1-methylurea] | 5.20 |
| CN(C(=O)NCc1cc2cc(Cl)ccc2[nH]1)[C@@H]1CCCN(C(=O)C2(C)CC2)C1 [Compound 45, (R)-3-((5-chloro-1H-indol-2-yl)methyl)-1-methyl-1-(1-(1-methylcyclopropane-1-carbonyl)piperidin-3-yl)urea] | 5.81 |
| CN(C(=O)NCc1cc2cc(Cl)ccc2[nH]1)[C@@H]1CCCN(C(=O)CCC(N)=O)C1 [Compound 46, (R)-4-(3-(3-((5-chloro-1H-indol-2-yl)methyl)-1-methylureido)piperidin-1-yl)-4-oxobutanamide] | 5.91 |
| CN(C(=O)NCc1cc2cc(Cl)ccc2[nH]1)[C@@H]1CCCN(C(=O)c2cc(CO)on2)C1 [Compound 47, (R)-3-((5-chloro-1H-indol-2-yl)methyl)-1-(1-(5-(hydroxymethyl)isoxazole-3-carbonyl)piperidin-3-yl)-1-methylurea] | 5.61 |
| CN(C(=O)NCc1cc2cc(Cl)ccc2[nH]1)[C@@H]1CCCN(C(=O)C(C)(O)C(F)(F)F)C1 (stereo partly drawn) [Compound 50, 3-((5-chloro-1H-indol-2-yl)methyl)-1-methyl-1-((3R)-1-(3,3,3-trifluoro-2-hydroxy-2-methylpropanoyl)piperidin-3-yl)urea] | 5.32 |
| CN(C(=O)NCc1cc2cc(Cl)ccc2[nH]1)[C@@H]1CCCN(C(=O)c2ccnn2C)C1 [Compound 51, (R)-3-((5-chloro-1H-indol-2-yl)methyl)-1-methyl-1-(1-(1-methyl-1H-pyrazole-5-carbonyl)piperidin-3-yl)urea] | 5.32 |

The next molecules have a higher pIC50 than those just listed; values first:

| pIC50 | SMILES |
| --- | --- |
| 6.09 | Cc1ncoc1C(=O)N1CCC[C@@H](N(C)C(=O)NCc2cc3cc(Cl)ccc3[nH]2)C1 [Compound 27, (R)-3-((5-chloro-1H-indol-2-yl)methyl)-1-methyl-1-(1-(4-methyloxazole-5-carbonyl)piperidin-3-yl)urea] |
| 6.39 | CC(C)C(=O)N1CCC[C@@H](N(C)C(=O)NCc2cc3cc(Cl)ccc3[nH]2)C1 [Compound 33, (R)-3-((5-chloro-1H-indol-2-yl)methyl)-1-(1-isobutyrylpiperidin-3-yl)-1-methylurea] |
| 6.25 | Cc1cnc(C(=O)N2CCC[C@@H](N(C)C(=O)NCc3cc4cc(Cl)ccc4[nH]3)C2)s1 [Compound 35, (R)-3-((5-chloro-1H-indol-2-yl)methyl)-1-methyl-1-(1-(5-methylthiazole-2-carbonyl)piperidin-3-yl)urea] |
| 6.37 | Cc1ncc(C(=O)N2CCC[C@@H](N(C)C(=O)NCc3cc4cc(Cl)ccc4[nH]3)C2)o1 [Compound 38, (R)-3-((5-chloro-1H-indol-2-yl)methyl)-1-methyl-1-(1-(2-methyloxazole-5-carbonyl)piperidin-3-yl)urea] |
| 6.64 | CN(C(=O)NCc1cc2cc(Cl)ccc2[nH]1)[C@@H]1CCCN(C(=O)c2ccn(C(F)F)n2)C1 [Compound 39, (R)-3-((5-chloro-1H-indol-2-yl)methyl)-1-(1-(1-(difluoromethyl)-1H-pyrazole-3-carbonyl)piperidin-3-yl)-1-methylurea] |
| 6.07 | Cc1cc(C(=O)N2CCC[C@@H](N(C)C(=O)NCc3cc4cc(Cl)ccc4[nH]3)C2)[nH]n1 [Compound 41, (R)-3-((5-chloro-1H-indol-2-yl)methyl)-1-methyl-1-(1-(3-methyl-1H-pyrazole-5-carbonyl)piperidin-3-yl)urea] |
| 6.46 | CN(C(=O)NCc1cc2cc(Cl)ccc2[nH]1)[C@@H]1CCCN(C(=O)C2CC(F)(F)C2)C1 [Compound 44, (R)-3-((5-chloro-1H-indol-2-yl)methyl)-1-(1-(3,3-difluorocyclobutane-1-carbonyl)piperidin-3-yl)-1-methylurea] |
| 7.35 | CN(C(=O)NCc1cc2cc(Cl)ccc2[nH]1)[C@@H]1CCCN(C(=O)C2CCC2)C1 [Compound 48, (R)-3-((5-chloro-1H-indol-2-yl)methyl)-1-(1-(cyclobutanecarbonyl)piperidin-3-yl)-1-methylurea] |
| 6.43 | CN(C(=O)NCc1cc2cc(Cl)ccc2[nH]1)[C@@H]1CCCN(C(=O)CC2CC2)C1 [Compound 49, (R)-3-((5-chloro-1H-indol-2-yl)methyl)-1-(1-(2-cyclopropylacetyl)piperidin-3-yl)-1-methylurea] |
